Measured values published in paper PMC11259170, “Small-molecule probe for IBD risk variant GPR65 I231L alters cytokine signaling networks through positive allosteric modulation” (Science Advances, 2024).

What was measured:
[1] = tested on: WT HeLa cells expressing hGPR65; assay: Cytotoxicity assay (CellTiter-Glo, 72 hours); format: cell-based, human
Experimental: WT HeLa cells expressing hGPR65 were seeded at 2000 cells per well in 384-well plates. Compounds were tested in 10-point dose, starting at 50 μM. Cells were incubated with compounds for 72 hours at 37°C, 5% CO2. Cytotoxicity was measured using CellTiter-Glo Luminescent Cell Viability Assay (Promega, G7572) according to the manufacturer’s protocol. Luminescence measurements were made on BMG Labtech PHERAstar FSX. Data analysis was performed using GraphPad Prism.

[2] = tested on: GPR65 WT mouse splenocytes; assay: cAMP detection in GPR65 WT mouse splenocytes; format: cell-based; settings: 0 to 50 μM, pH 7.2, GPR65-dependent
Experimental: cAMP was measured in cells using the Lance Ultra cAMP Kit. Spleens were harvested from GPR65 WT and GPR65 KO mice, homogenized and passed through a 70-μm cell strainer into harvest buffer [PBS, 0.5% bovine serum albumin (BSA), and 2 mM EDTA]. Cells were then centrifuged, washed with harvest buffer, and resuspended in red blood cell lysis buffer for 10 min at RT. Cells were counted and resuspended in assay buffer (25-ml DMEM, 0.5-ml 7.5% sodium bicarbonate, and 333-μl 7.5% BSA stabilizer) and adjusted to pH 7.2 with 1 M NaOH. Splenocytes were added to a white opaque OptiPlate 384-well microplates at a density of 100,000 cells per well in 20 μl. Compounds were added into the wells using a pin transfer tool, and plates were incubated at 37°C, 5% CO2 for 40 min. Each detection reagent (5 μl) was added to the plate and incubated at RT in the dark for 1 hour. Eu-cAMP tracer and FRET emissions were read using a PerkinElmer EnVision Multimode plate reader (ENVISION21040010). Data analysis was performed using GraphPad Prism.

SMILES | cell viability ([1]; 50 μM, 72 hours) | cytotoxicity ([1]; 72-hour incubation, 0-50 μM) | cAMP production in mouse splenocytes, compared [2]
Cc1ccc(NC(=O)c2cnn3c(O)cc(-c4ccc(COC(C)C)cc4)nc23)nc1 [BRD5075, O=C(NC1=NC=C(C)C=C1)C2=C3N(N=C2)C(O)=CC(C4=CC=C(COC(C)C)C=C4)=N3] | slight decrease in cell viability | not cytotoxic | –
CN1N=C(SCc2ccc(Cl)cc2Cl)Sc2c1cnn(C)c2=O [BTB09089, reference compound] | – | – | induced higher cAMP production than BRD2813
